Experimental data taken from paper PMC10611578, “Aβ1-6A2V(D) peptide, effective on Aβ aggregation, inhibits tau misfolding and protects the brain after traumatic brain injury” (Molecular Psychiatry, 2023).
Square brackets hold non-standard residues; d marks the D form. Peptide text beside a SMILES is read from it.

Key:
[1] = tested on: misfolded toxic tau in P301L mouse brain homogenate; C. elegans; format: in vivo, Caenorhabditis elegans (Bristol N2)
Experimental: Bristol N2 nematodes were obtained from the Caenorhabditis elegans Genetic Center (CGC, University of Minnesota, Minneapolis, MN, USA) and propagated at 20 °C on solid Nematode Growth Medium (NGM) seeded with E. coli OP50 (CGC) for food. We used the bleaching technique to prepare age-synchronized animals. C. elegans at the first larval stage were then transferred to fresh NGM plates and grown at 20 °C. At the L3-L4 larval stage, nematodes were collected with M9 buffer, centrifuged, and washed twice with 10 mM PBS (pH 7.4) to eliminate bacteria. Worms were incubated for 2 h at room temperature with orbital shaking, in the absence of E. coli, with brain homogenates from Non-tg and P301L mice (30 µg protein/100 worms/100 µL 10 mM PBS, pH 7.4) in the presence or absence of 50 µM Aβ1-6A2V(D), 50 µM TAT, or 0.1–200 µM Aβ1-6A2V-TAT(D). Control worms were treated with 10 mM PBS, pH 7.4 (Vehicle), 50 µM Aβ1-6A2V (D), 50 µM Aβ1-6A2V-TAT(D) or 50 µM TAT (100 worms/100 µL). Pericontusional tissue homogenates from young WT TBI mice 12 months post-injury or aged-matched sham mice were administered to worms (30 µg protein/100 worms/100 µL) in the absence or presence of 50 µM Aβ1-6A2V-TAT(D). Pericontusional tissue homogenates from 3xTg-AD TBI mice, as well as pericontusional tissues from aged WT TBI, previously treated or not with intranasal 50 mg/kg b.w. […] Homogenates from naive or sham mice were administered to worms as controls for 3xTg-AD and aged WT TBI mice, respectively ((30 µg protein/100 worms/100 µL 10 mM PBS, pH 7.4). As an additional negative control, 10 mM PBS, pH 7.4 (100 worms/100 µL) was administered to nematodes. Worms were then plated onto NGM plates seeded with OP50 E. coli, grown at 20 °C, and transferred every day to new NGM plates seeded with E. coli to avoid overlapping generations. The locomotor activity of nematodes was scored 7 days after the treatment in blind conditions and expressed as the body bends/min [26]. […]

[2] = tested on: tau (P301L mouse brain homogenate), proteinase K; test: Proteolysis of tau in P301L brain homogenate; format: biochemical, human tau with P301L mutation, JNPL3 mice; conditions: 50 µM Aβ1-6A2V-TAT(D), P301L brain homogenate 30 µg protein/100 µL, 30 min at 37 °C with proteinase K (2.5–10 µg/ml)
[3] = tested on: insoluble tau (P301L mouse brain homogenate); test: Detergent insolubility assay of tau in P301L brain lysate; format: biochemical, human tau with P301L mutation, JNPL3 mice; conditions: 50 µM, 2 h at 25 °C, PBS pH 7.4; mean ± SD, N = 4-5
C. elegans = conditions: C. elegans; ref [18]; cited from earlier work
[4] = tested on: abnormal tau in WT TBI mouse brain homogenate; C. elegans; test: Locomotor activity of C. elegans exposed to brain homogenate of WT TBI mice 12 months post-injury; format: in vivo, Caenorhabditis elegans (Bristol N2); conditions: 50 µM peptide, pericontusional tissue 12 months post-injury, 30 µg protein/100 worms/100 µL, 7 days after treatment; N = 30
Experimental: Bristol N2 nematodes were obtained from the Caenorhabditis elegans Genetic Center (CGC, University of Minnesota, Minneapolis, MN, USA) and propagated at 20 °C on solid Nematode Growth Medium (NGM) seeded with E. coli OP50 (CGC) for food. We used the bleaching technique to prepare age-synchronized animals. C. elegans at the first larval stage were then transferred to fresh NGM plates and grown at 20 °C. At the L3-L4 larval stage, nematodes were collected with M9 buffer, centrifuged, and washed twice with 10 mM PBS (pH 7.4) to eliminate bacteria. […] Homogenates from naive or sham mice were administered to worms as controls for 3xTg-AD and aged WT TBI mice, respectively ((30 µg protein/100 worms/100 µL 10 mM PBS, pH 7.4). As an additional negative control, 10 mM PBS, pH 7.4 (100 worms/100 µL) was administered to nematodes. Worms were then plated onto NGM plates seeded with OP50 E. coli, grown at 20 °C, and transferred every day to new NGM plates seeded with E. coli to avoid overlapping generations. The locomotor activity of nematodes was scored 7 days after the treatment in blind conditions and expressed as the body bends/min [26]. […]

**Q.** With `CC(C)[C@@H](NC(=O)[C@H](N)CC(=O)O)C(=O)N[C@H](CCC(=O)O)C(=O)N[C@H](Cc1ccccc1)C(=O)N[C@H](CCCNC(=N)N)C(=O)N[C@H](Cc1c[nH]cn1)C(=O)NCC(=O)NCC(=O)NCC(=O)NCC(=O)NCC(=O)N[C@H](CCCNC(=N)N)C(=O)N[C@H](CCCCN)C(=O)N[C@H](CCCCN)C(=O)N[C@H](CCCNC(=N)N)C(=O)N[C@H](CCCNC(=N)N)C(=O)N[C@H](CCC(N)=O)C(=O)N[C@H](CCCNC(=N)N)C(=O)N[C@H](CCCNC(=N)N)C(=O)N[C@H](CCCNC(=N)N)C(=O)O` [Aβ1-6A2V-TAT(D)] (H-[dD][dV][dE][dF][dR][dH]GGGGG[dR][dK][dK][dR][dR][dQ][dR][dR][dR]-OH; N-terminus assumed) as the compound, how does the “Dose dependence of the protection of worms from P301L brain homogenate” value ([1]; 0-200 µM peptide, body bends 7 days after treatment) read?
**A.** The effect was dose-dependent

**Q.** And the “Protection of worms from toxicity of P301L brain homogenate” value ([1]; 30 µg protein/100 worms/100 µL, body bends 7 days after treatment, 50 µM peptide)?
**A.** protected worms from the toxicity caused by P301L brain homogenates

**Q.** And the IC50 ([1]; 0.1–200 µM peptide, 30 µg protein/100 worms/100 µL, 2 h exposure at room temperature, PBS pH 7.4, body bends 7 days after treatment, three independent experiments (N = 30), read-out: IC50 for protection of worms from P301L brain homogenate toxicity)?
**A.** 25.6 µM

**Q.** What about the “Susceptibility of tau to degradation by proteases” value [2] of the same compound?
**A.** increased the susceptibility of tau to degradation by proteases, and this was particularly evident in the presence of proteinase K

**Q.** And the “Fraction of insoluble tau in P301L brain homogenate” value [3]?
**A.** without affecting the fraction of insoluble tau

**Q.** What about the “Passage through the worm's membrane” value (C. elegans) of the same compound?
**A.** only in the presence of the TAT sequence, Aβ1-6A2V(D) can pass through the worm’s membrane

**Q.** And the “Reversal of toxic effect of WT TBI brain homogenate in C. elegans” value [4]?
**A.** completely reverted
